In patent US10045981B2, “Selective kinase inhibitors” (JAKPHARM, LLC, priority 2015, dated 2018):
≈ marks a conversion by molar mass, not a printed value. Where two headings read alike, the source gives them in different places.

Columns and labels:
STAT5 = STAT5 inhibition IC50; format: cell-based
JAK1 = JAK1 (Homo sapiens, UniProt P23458); test: JAK1 IC50; format: biochemical
[1] = Solubility in aqueous buffer; format: physicochemical; conditions: for solubility: aqueous buffer
CK1g2 = CK1g2 (Homo sapiens, UniProt P78368); test: Exemplary Kinase Panel Analysis; format: biochemical; conditions: 10 concentrations, 3-fold serial dilutions starting at 5 μM, duplicate
CK1g3 = CK1g3 (Homo sapiens, UniProt Q9Y6M4); test: Exemplary Kinase Panel Analysis; format: biochemical; conditions: 10 concentrations, 3-fold serial dilutions starting at 5 μM, duplicate
EGFR (d752-759) = EGFR (d752-759) (Homo sapiens, UniProt P00533, DEL752-759); test: Exemplary Kinase Panel Analysis; format: biochemical; conditions: 10 concentrations, 3-fold serial dilutions starting at 5 μM, duplicate
EGFR (L858R, T790M) = EGFR (L858R, T790M) (Homo sapiens, UniProt P00533, L858R/T790M); test: Exemplary Kinase Panel Analysis; format: biochemical; conditions: 10 concentrations, 3-fold serial dilutions starting at 5 μM, duplicate
EGFR (T790M) = EGFR (T790M) (Homo sapiens, UniProt P00533, T790M); test: Exemplary Kinase Panel Analysis; format: biochemical; conditions: 10 concentrations, 3-fold serial dilutions starting at 5 μM, duplicate
JAK3 = molecular target: T1, JAK3 (Homo sapiens, UniProt P52333); test: Exemplary Kinase Panel Analysis; format: biochemical; conditions: 10 concentrations, 3-fold serial dilutions starting at 5 μM, duplicate
T1 sequence (P52333 1-1124): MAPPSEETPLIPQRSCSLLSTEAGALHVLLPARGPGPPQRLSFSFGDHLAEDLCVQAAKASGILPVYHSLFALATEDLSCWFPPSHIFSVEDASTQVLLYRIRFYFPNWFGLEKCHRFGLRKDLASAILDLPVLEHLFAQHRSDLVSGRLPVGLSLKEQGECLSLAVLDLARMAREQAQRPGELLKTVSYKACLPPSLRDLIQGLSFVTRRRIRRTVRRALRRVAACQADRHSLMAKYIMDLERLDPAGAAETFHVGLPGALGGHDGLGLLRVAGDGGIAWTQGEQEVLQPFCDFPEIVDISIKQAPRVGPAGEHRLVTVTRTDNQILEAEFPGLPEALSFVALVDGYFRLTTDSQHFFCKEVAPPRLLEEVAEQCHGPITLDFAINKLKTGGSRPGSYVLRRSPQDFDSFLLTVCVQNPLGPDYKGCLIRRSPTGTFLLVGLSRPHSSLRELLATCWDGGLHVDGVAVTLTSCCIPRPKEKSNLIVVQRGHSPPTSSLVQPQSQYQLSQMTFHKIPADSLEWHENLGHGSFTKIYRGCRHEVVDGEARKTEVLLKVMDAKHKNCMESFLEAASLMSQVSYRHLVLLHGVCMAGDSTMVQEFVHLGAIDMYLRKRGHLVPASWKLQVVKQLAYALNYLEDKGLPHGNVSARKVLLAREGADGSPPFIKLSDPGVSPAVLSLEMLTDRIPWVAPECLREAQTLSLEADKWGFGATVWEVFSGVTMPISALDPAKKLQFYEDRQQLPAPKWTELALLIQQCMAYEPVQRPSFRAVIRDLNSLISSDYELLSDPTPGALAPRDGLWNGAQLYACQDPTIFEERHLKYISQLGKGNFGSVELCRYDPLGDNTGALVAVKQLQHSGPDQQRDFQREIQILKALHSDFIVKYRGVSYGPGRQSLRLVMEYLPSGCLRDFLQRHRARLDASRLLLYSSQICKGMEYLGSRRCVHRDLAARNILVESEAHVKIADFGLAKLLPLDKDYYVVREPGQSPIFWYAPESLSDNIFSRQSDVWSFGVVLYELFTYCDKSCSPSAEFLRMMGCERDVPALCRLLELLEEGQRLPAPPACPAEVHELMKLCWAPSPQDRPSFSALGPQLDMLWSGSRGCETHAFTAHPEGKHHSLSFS

TXK = molecular target: T2, TXK (Homo sapiens, UniProt P42681); test: Exemplary Kinase Panel Analysis; format: biochemical; conditions: 10 concentrations, 3-fold serial dilutions starting at 5 μM, duplicate
T2 sequence (P42681 1-527): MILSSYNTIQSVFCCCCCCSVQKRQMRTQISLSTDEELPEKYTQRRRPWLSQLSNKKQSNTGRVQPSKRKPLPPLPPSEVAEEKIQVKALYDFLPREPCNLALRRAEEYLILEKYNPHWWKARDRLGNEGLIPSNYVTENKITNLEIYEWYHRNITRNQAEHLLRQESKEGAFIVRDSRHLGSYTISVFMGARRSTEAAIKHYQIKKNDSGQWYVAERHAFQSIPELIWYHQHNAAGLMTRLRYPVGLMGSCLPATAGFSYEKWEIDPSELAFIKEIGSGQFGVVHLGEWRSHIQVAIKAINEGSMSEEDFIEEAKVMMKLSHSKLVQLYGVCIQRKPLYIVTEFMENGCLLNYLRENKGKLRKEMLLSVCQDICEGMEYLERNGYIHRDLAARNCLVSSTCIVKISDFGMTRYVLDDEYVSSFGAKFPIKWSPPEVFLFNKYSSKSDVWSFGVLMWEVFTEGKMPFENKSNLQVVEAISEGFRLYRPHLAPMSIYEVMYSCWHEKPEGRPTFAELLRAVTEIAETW

[2] = Brain penetration classification
[3] = Rat Liver Microsomes stability; format: in vitro ADME; conditions: read-out: Rat Liver Microsomes t½
[4] = Mouse Liver Microsomes stability; format: in vitro ADME; conditions: read-out: Mouse Liver Microsomes t½
CYP2D6 = CYP2D6 (Homo sapiens, UniProt P10635); test: CYP2D6 inhibition LCMS; format: in vitro ADME
CYP3A4 = CYP3A4 (Homo sapiens, UniProt P08684); test: CYP3A4 inhibition midazolam LCMS; format: in vitro ADME
[5] = Cytotoxicity Screening L929 Fibroblasts; format: cell-based; conditions: mouse, read-out: 50% Maximal Effect Concentration (AC50)
Text: (§1) The cytotoxicity screening panel included cell count, nuclear size, DNA structure, cell membrane permeability, mitochondrial mass, mitochondrial membrane potential, and cytochrome C release.

L929 Fibroblasts = test: Cytotoxicity Screening L929 Fibroblasts; format: cell-based
Text: as §1

[6] = Original analysis, read-out: STAT5 IC50 (uM) Original
[7] = Table 3, first session (before /), read-out: STATS inhibition IC50
[8] = Table 3, second session (after /), read-out: STATS inhibition IC50
[9] = re-test, read-out: STAT5 IC50 (uM) re-test
[10] = Original analysis, read-out: JAK1 IC50 (uM) Original
[11] = re-test, read-out: JAK1 IC50 (uM) re-test
[12] = pH 7.4, aqueous buffer, pH 7.4, Original, read-out: Solubility pH 7.4 (uM) Original
[13] = pH 7.4, aqueous buffer, pH 7.4, Re-test, read-out: Solubility pH 7.4 (uM) Re-test
[14] = pH 7.4, aqueous buffer, pH 7.4, Table 3, first session (before /), read-out: Solubility, pH 7.4
[15] = pH 7.4, aqueous buffer, pH 7.4, Table 3, second session (after /), read-out: Solubility, pH 7.4

Sequence of CYP3A4 (P08684 whole entry): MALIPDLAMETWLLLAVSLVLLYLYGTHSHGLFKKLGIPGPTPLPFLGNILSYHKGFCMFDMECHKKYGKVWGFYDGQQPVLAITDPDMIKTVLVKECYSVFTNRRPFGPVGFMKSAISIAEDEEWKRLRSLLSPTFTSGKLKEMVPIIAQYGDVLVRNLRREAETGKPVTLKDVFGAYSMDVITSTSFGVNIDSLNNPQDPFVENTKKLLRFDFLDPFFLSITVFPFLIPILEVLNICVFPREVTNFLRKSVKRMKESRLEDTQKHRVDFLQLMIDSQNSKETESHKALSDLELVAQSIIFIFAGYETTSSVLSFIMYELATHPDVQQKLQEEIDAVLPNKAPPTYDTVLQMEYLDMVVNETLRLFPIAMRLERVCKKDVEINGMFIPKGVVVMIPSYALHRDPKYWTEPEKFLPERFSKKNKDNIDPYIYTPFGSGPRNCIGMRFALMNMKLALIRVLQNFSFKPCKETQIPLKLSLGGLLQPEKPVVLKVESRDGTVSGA
Sequence of JAK1 (P23458 whole entry, species assumed): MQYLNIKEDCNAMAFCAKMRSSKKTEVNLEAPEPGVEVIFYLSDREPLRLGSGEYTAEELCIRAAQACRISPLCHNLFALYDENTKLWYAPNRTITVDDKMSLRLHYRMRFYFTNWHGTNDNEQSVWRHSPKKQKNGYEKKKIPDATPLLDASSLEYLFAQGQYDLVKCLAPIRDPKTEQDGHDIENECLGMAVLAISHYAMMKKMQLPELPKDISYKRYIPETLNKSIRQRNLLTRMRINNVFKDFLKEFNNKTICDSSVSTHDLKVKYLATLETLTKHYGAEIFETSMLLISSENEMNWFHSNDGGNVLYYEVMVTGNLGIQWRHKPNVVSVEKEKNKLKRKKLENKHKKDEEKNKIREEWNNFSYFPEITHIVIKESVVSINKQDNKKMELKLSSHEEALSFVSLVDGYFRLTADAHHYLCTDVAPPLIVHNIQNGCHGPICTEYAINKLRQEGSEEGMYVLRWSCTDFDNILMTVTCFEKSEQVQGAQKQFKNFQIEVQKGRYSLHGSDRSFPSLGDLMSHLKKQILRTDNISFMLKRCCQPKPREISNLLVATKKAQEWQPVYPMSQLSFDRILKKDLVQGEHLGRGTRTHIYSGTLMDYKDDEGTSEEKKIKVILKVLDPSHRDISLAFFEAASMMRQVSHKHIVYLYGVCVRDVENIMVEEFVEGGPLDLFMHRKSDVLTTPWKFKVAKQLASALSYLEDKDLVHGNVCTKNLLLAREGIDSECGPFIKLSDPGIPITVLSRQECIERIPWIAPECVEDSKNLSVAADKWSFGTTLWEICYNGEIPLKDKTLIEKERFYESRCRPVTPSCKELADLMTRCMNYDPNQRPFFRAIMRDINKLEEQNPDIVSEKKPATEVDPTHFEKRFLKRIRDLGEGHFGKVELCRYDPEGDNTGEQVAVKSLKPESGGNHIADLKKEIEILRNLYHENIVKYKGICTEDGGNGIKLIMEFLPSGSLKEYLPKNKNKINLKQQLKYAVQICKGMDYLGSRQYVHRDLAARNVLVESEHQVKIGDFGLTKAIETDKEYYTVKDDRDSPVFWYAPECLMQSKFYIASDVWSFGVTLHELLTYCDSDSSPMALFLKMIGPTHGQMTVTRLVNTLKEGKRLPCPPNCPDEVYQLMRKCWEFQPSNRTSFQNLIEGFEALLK
Sequence of CYP2D6 (P10635 whole entry): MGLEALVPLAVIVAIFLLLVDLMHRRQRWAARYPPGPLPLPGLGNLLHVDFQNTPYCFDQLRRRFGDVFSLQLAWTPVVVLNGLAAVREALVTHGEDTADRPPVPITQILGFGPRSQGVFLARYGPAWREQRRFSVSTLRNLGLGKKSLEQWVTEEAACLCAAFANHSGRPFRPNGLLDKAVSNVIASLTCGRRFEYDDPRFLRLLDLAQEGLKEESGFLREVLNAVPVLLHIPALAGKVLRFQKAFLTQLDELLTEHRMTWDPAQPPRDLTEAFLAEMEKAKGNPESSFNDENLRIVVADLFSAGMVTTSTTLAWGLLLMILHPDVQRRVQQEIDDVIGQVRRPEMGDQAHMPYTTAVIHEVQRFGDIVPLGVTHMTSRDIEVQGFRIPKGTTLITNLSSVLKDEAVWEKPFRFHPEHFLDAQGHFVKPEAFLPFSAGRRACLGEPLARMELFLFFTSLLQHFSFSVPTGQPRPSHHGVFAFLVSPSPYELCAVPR
Sequence of CK1g2 (P78368 whole entry, species assumed): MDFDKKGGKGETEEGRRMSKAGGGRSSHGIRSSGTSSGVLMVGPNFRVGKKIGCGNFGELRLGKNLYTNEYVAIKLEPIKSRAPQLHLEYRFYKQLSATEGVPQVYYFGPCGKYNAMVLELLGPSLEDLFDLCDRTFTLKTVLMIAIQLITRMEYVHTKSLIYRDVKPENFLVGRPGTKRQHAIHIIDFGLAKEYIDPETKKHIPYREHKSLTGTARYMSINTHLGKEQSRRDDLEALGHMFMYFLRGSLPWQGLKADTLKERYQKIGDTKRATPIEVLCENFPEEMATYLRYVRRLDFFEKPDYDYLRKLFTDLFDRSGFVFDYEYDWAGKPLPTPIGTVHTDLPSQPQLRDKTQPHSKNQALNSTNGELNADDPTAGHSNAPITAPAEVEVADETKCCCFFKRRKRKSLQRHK
Sequence of EGFR (L858R, T790M) (P00533 25-1210 T790M/L858R): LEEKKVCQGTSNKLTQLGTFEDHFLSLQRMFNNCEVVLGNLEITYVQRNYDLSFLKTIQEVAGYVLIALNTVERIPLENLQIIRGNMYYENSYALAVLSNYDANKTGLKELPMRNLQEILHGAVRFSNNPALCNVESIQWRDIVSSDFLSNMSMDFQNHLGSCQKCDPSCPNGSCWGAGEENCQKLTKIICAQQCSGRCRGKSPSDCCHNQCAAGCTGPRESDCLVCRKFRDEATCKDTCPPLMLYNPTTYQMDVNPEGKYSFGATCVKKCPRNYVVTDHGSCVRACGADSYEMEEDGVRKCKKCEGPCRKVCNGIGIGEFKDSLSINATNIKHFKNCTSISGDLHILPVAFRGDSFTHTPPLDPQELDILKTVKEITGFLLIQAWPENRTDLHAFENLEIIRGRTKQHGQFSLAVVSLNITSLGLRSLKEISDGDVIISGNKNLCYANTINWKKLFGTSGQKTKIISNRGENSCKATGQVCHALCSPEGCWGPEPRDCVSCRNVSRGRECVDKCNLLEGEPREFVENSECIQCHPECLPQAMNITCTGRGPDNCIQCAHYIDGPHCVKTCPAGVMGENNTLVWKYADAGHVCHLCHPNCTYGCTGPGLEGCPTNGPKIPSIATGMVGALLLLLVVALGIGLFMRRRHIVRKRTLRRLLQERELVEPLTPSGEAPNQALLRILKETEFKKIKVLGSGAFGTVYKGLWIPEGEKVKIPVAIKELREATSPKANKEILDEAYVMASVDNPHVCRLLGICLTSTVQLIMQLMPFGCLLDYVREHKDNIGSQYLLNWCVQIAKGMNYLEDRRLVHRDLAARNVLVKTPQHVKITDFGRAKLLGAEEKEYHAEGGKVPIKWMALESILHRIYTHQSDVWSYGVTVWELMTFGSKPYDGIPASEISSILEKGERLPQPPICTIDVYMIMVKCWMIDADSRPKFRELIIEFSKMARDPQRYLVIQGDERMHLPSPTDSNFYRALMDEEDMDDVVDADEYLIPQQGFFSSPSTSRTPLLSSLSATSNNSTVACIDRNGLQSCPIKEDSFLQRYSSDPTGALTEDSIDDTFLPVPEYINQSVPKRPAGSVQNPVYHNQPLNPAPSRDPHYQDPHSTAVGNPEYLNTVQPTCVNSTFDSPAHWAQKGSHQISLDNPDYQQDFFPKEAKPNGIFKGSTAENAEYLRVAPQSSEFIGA
Sequence of CK1g3 (Q9Y6M4 whole entry): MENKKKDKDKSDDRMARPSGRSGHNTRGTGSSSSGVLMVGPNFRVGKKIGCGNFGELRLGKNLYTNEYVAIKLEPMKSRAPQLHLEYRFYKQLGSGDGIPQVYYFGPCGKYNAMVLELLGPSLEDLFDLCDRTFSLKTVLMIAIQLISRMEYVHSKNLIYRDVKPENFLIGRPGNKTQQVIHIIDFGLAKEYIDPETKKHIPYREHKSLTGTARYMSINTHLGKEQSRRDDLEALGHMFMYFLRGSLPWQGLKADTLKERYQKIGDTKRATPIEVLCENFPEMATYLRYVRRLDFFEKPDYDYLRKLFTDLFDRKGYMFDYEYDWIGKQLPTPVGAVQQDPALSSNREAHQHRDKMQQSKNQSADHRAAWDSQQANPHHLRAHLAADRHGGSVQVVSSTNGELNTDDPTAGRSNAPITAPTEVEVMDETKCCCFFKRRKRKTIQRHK
Sequence of EGFR (d752-759) (P00533 with tags, fused parts or gaps DEL752-759 limits assumed): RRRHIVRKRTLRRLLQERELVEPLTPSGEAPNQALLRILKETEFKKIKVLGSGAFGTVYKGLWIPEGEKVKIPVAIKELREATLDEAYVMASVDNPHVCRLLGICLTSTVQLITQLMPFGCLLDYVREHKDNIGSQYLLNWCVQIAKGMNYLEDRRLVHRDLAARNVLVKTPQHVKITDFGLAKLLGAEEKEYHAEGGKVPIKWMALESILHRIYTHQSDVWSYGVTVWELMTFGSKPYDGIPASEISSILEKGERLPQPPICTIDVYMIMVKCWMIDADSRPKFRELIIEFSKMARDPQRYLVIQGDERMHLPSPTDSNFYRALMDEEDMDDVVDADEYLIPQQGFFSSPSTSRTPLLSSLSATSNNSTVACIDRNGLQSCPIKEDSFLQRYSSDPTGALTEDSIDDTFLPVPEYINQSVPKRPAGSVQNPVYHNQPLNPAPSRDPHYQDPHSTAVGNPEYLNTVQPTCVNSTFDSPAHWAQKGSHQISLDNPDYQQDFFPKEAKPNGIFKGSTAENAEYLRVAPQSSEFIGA

For `C=CC(=O)Nc1cc(NS(C)(=O)=O)cc(-c2cnc3ccccc3n2)c1` [Compound 3], the IC50 (STAT5; [6]) was 7.5 µM, the IC50 (STAT5; [7]) was 7.5 µM and the IC50 (STAT5; [8]) was 7.4 µM. For the same compound, the IC50 (STAT5; [9]) was 7.4 µM, the IC50 (JAK1; [10]) was ≥ 100 µM and the IC50 (JAK1; [11]) was ≥ 100 µM. It also gave a solubility [1, 12] of 34 µM (≈ 12.5 µg/mL), a solubility [1, 13] of 3 µM (≈ 1.11 µg/mL) and a solubility [1, 14] of 34 µM (≈ 12.5 µg/mL). It also gave a solubility [1, 15] of 3 µM (≈ 1.11 µg/mL), an IC50 (CK1g2) of 0.0333 µM and an IC50 (CK1g3) of 0.118 µM. It also gave an IC50 (EGFR (d752-759)) of 3.18 µM, an IC50 (EGFR (L858R, T790M)) of 1.12 µM and an IC50 (EGFR (T790M)) of 2.24 µM. The IC50 (JAK3) was 0.0249 µM, the IC50 (TXK) was 0.144 µM and the Brain penetration classification [2] was “Low”. The half-life ([3]; first session (before /)) was 38 min, the half-life ([3]; second session (after /)) was 60 min and the half-life ([4]; first session (before /)) was 25 min. The half-life ([4]; second session (after /)) was 84 min, the IC50 (CYP2D6; first session (before /)) was > 100 µM and the IC50 (CYP2D6; second session (after /)) was > 100 µM. The IC50 (CYP3A4; first session (before /)) was > 100 µM, the IC50 (CYP3A4; second session (after /)) was > 100 µM and the AC50 [5] was 20 µM. The “Minimal Effective Concentration (MEC, uM)” value (L929 Fibroblasts) was 10 µM.

`C=CC(=O)Nc1cc(CN2CCNC(=O)C2)cc(-c2cnc3ccccc3n2)c1` [Compound 1b, N-[3-[(3-oxopiperazin-1-yl)methyl]-5-quinoxalin-2-yl-phenyl] prop-2-enamide] showed an IC50 (STAT5; [6]) of 5.5 µM, an IC50 (STAT5; [7]) of 5.5 µM and an IC50 (STAT5; [8]) of 8.6 µM. For the same compound, the IC50 (STAT5; [9]) was 8.6 µM, the IC50 (JAK1; [10]) was ≥ 100 µM and the IC50 (JAK1; [11]) was ≥ 100 µM. It also gave a solubility ([1]; pH 5, aqueous buffer, pH 5.0, read-out: Solubility In Aqueous Buffer pH 5.0) of 93 µM (≈ 36 µg/mL), a solubility ([1]; pH 6.5, aqueous buffer, pH 6.5, read-out: Solubility In Aqueous Buffer pH 6.5) of 108 µM (≈ 41.8 µg/mL) and a solubility [1, 12] of 88 µM (≈ 34.1 µg/mL). For the same compound, the solubility [1, 13] was 88 µM (≈ 34.1 µg/mL), the solubility [1, 14] was 88 µM (≈ 34.1 µg/mL) and the solubility [1, 15] was 88 µM (≈ 34.1 µg/mL). For the same compound, the “solubility at pH 7.4 (in words)” value ([1]; pH 7.4) was “highly and consistently soluble”, the IC50 (CK1g2) was 0.322 µM and the IC50 (CK1g3) was 0.757 µM. The IC50 (EGFR (d752-759)) was 1.56 µM, the IC50 (EGFR (L858R, T790M)) was 1.32 µM and the IC50 (EGFR (T790M)) was 3.54 µM. For the same compound, the IC50 (JAK3) was 0.000972 µM, the IC50 (TXK) was 0.0161 µM and the Brain penetration classification [2] was “Low”. For the same compound, the half-life ([3]; first session (before /)) was 63 min, the half-life ([3]; second session (after /)) was 77 min and the half-life ([4]; first session (before /)) was 23 min. The half-life ([4]; second session (after /)) was 50 min, the IC50 (CYP2D6; first session (before /)) was > 100 µM and the IC50 (CYP2D6; second session (after /)) was > 100 µM. The IC50 (CYP3A4; first session (before /)) was > 100 µM, the IC50 (CYP3A4; second session (after /)) was > 100 µM and the AC50 [5] was 45 µM. For the same compound, the “Minimal Effective Concentration (MEC, uM)” value (L929 Fibroblasts) was 20 µM.
